# Test results published in patent US12157730B2, “Heteroaryl derivative, method for producing same, and pharmaceutical composition comprising same as effective component” (VORONOI INC., priority 2019, dated 2024).
# Target: T1, Ba/F3 cell EGFR Exon20 ins NPH (Homo sapiens, UniProt P00533, INS773NPH)
# T1 construct: expressed in transfected cells; host or cells: Ba/F3
# Test: Ba/F3 cell proliferation suppression, EGFR Exon20 ins NPH
# Assay type: cell-based
# Conditions: GI50 class; Ba/F3 cell line with NPH inserted at Exon20 of EGFR; 72 hours
# Outline: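 72 h compound exposure, 0.3 nM–50 um (12 points, 3:1 dilution in DMSO); viability by CellTiter-Glo luminescence. Ba/F3 medium: RPMI-1640, 10% FBS, 5 ng/ml IL-3, 1 ug/ml puromycin for transduced cells. GI50 vs control, n=3.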
row,SMILES,Ba/F3 (NPH) Activity
1,"C=CC(=O)Nc1cc(Nc2cc(N3OCC[C@@H]3c3cccc(F)c3F)ncn2)c(OC)cc1N1CC2CCC(C1)O2 [compound 887, N-(2-(8-oxa-3-azabicyclo[3.2.1]octan-3-yl)-5-((6-((R)-3-(2,3-difluorophenyl)isoxazolidine-2-yl)pyrimidine-4-yl)amino)-4-methoxyphenyl) acrylamide]",A (GI50 < 50 nM)
2,"C=CC(=O)Nc1cc(Nc2cc(N3OCC[C@@H]3Cc3ccc(C(F)(F)F)cc3)ncn2)c(OC)cc1N1CCN(C2CC2)CC1 [compound 1049, N-(2-(4-cyclopropylpiperazine-1-yl)-4-methoxy-5-((6-((S)-3-(4-(trifluoromethyl)benzyl)isoxazolidine-2-yl)pyrimidine-4-yl)amino)phenyl) acrylamide]",C (500 nM ≤ GI50 < 5000 nM)
3,"C=CC(=O)Nc1cc(Nc2cc(N3OCC[C@@H]3c3ccc(F)cc3F)ncn2)c(OC)cc1N1CCC(N(C)C)CC1 [compound 384, N-(5-((6-((R)-3-(2,4-difluorophenyl)isoxazolidine-2-yl)pyrimidine-4-yl)amino)-2-(4-(dimethylamino)piperidine-1-yl)-4-methoxyphenyl) acrylamide]",A (GI50 < 50 nM)
4,"C=CC(=O)Nc1cc(Nc2cc(N3OCC[C@H]3Cc3ccccc3)ncn2)c(OC)cc1N1CCC(N2CCN(C3CC3)CC2)CC1 [compound 956, N-(5-((6-((R)-3-benzylisoxazolidine-2-yl)pyrimidine-4-yl)amino)-2-(4-(4-cyclopropylpiperazine-1-yl)piperidine-1-yl)-4-methoxyphenyl) acrylamide]",C (500 nM ≤ GI50 < 5000 nM)
5,"C=CC(=O)Nc1cc(Nc2cc(N3OCC[C@@H]3c3cccc(Cl)c3Cl)ncn2)c(OC)cc1N1CCN(C2CCN(C)CC2)CC1 [compound 562, N-(5-((6-((R)-3-(2,3-dichlorophenyl)isoxazolidine-2-yl)pyrimidine-4-yl)amino)-4-methoxy-2-(4-(1-methylpiperidine-4-yl)piperazine-1-yl)phenyl) acrylamide]",B (50 nM ≤ GI50 < 500 nM)
6,"C=CC(=O)Nc1cc(Nc2cc(N3OCC[C@@H]3c3cccc(Cl)c3)ncn2)c(OC)cc1N1CCC(N2CCN(CC)CC2)CC1 [compound 412, N-(5-((6-((R)-3-(3-chlorophenyl)isoxazolidine-2-yl)pyrimidine-4-yl)amino)-2-(4-(4-ethylpiperazine-1-yl)piperidine-1-yl)-4-methoxyphenyl) acrylamide]",A (GI50 < 50 nM)
7,"C=CC(=O)Nc1cc(Nc2cc(N3OCC[C@@H]3Cc3cccc(Cl)c3OC)ncn2)c(OC)cc1N1CCC(N2CCN(C3CC3)CC2)CC1 [compound 1054, N-(5-((6-((S)-3-(3-chloro-2-methoxybenzyl)isoxazolidine-2-yl)pyrimidine-4-yl)amino)-2-(4-(4-cyclopropylpiperazine-1-yl)piperidine-1-yl)-4-methoxyphenyl) acrylamide]",A (GI50 < 50 nM)
8,"C=CC(=O)Nc1cc(Nc2cc(N3OCC[C@@H]3c3ccc(F)c(Cl)c3)ncn2)c(OC)cc1N1CCC(N2CCOCC2)CC1 [compound 720, N-(5-((6-((R)-3-(3-chloro-4-fluorophenyl)isoxazolidine-2-yl)pyrimidine-4-yl)amino)-4-methoxy-2-(4-morpholinopiperidine-1-yl)phenyl)acrylamide]",A (GI50 < 50 nM)
9,"C=CC(=O)Nc1cc(Nc2cc(N3OCC[C@@H]3c3cc(F)cc(F)c3)ncn2)c(OC)cc1N1CCC(N2C[C@H](C)N(C3CC3)C[C@H]2C)CC1 [Example 107, N-(2-(4-((2R,5S)-4-cyclopropyl-2,5-dimethylpiperazine-1-yl)piperidine-1-yl)-5-((6-((R)-3-(3,5-difluorophenyl)isoxazolidine-2-yl)pyrimidine-4-yl)amino)-4-methoxyphenyl) acrylamide]",A (GI50 < 50 nM)

# The next lines start with the values.
row,Ba/F3 (NPH) Activity,SMILES
1,C (500 nM ≤ GI50 < 5000 nM),"C=CC(=O)Nc1cc(Nc2cc(N3OCC[C@H]3c3c(F)cccc3F)ncn2)c(OC)cc1N1C[C@H]2CCN(C)[C@H]2C1 [compound 898, N-(5-((6-((S)-3-(2,6-difluorophenyl)isoxazolidine-2-yl)pyrimidine-4-yl)amino)-4-methoxy-2-((3aR,6aR)-1-methylhexahydropyrrolo [3,4-b]pyrrole-5(1H)-yl)phenyl) acrylamide]"
2,A (GI50 < 50 nM),"C=CC(=O)Nc1cc(Nc2cc(N3OCC[C@@H]3c3cccc(C)c3F)ncn2)c(OC)cc1N1CCC(N2CCN(C(C)=O)CC2)CC1 [compound 421, N-(2-(4-(4-acetylpiperazine-1-yl)piperidine-1-yl)-5-((6-((R)-3-(2-fluoro-3-methylphenyl)isoxazolidine-2-yl)pyrimidine-4-yl)amino)-4-methoxyphenyl) acrylamide]"
3,A (GI50 < 50 nM),"C=CC(=O)Nc1cc(Nc2cc(N3OCC[C@@H]3c3cccc(F)c3F)ncn2)c(OC)cc1N1CCO[C@@H](C)C1 [compound 888, N-(5-((6-((R)-3-(2,3-difluorophenyl)isoxazolidine-2-yl)pyrimidine-4-yl)amino)-4-methoxy-2-((S)-2-methylmorpholino)phenyl)acrylamide]"
4,A (GI50 < 50 nM),"C=CC(=O)Nc1cc(Nc2cc(N3OCC[C@@H]3c3ccc(F)cc3F)ncn2)c(OC)cc1N(C)CCOC [compound 347, N-(5-((6-((R)-3-(2,4-difluorophenyl)isoxazolidine-2-yl)pyrimidine-4-yl)amino)-4-methoxy-2-((2-methoxyethyl)(methyl)amino)phenyl) acrylamide]"
5,A (GI50 < 50 nM),"C=CC(=O)Nc1cc(Nc2cc(N3OCC[C@@H]3c3cccc(F)c3F)ncn2)c(OC)cc1N1CCC(N2CC[C@H](N(C)C)C2)CC1 [compound 340, N-(5-((6-((R)-3-(2,3-difluorophenyl)isoxazolidine-2-yl)pyrimidine-4-yl)amino)-2-(4-((S)-3-(dimethylamino)pyrolidine-1-yl)piperidine-1-yl)-4-methoxyphenyl) acrylamide]"
6,C (500 nM ≤ GI50 < 5000 nM),"C=CC(=O)Nc1cc(Nc2cc(N3OCC[C@H]3c3c(F)cccc3F)ncn2)c(OC)cc1N1CCC(N2CC[C@@H](N(C)C)C2)CC1 [compound 314, N-(5-((6-((S)-3-(2,6-difluorophenyl)isoxazolidine-2-yl)pyrimidine-4-yl)amino)-2-(4-((R)-3-(dimethylamino)pyrolidine-1-yl)piperidine-1-yl)-4-methoxyphenyl) acrylamide]"
7,A (GI50 < 50 nM),"C=CCN1CCN(C2CCN(c3cc(OC)c(Nc4cc(N5OCC[C@@H]5c5cc(F)ccc5F)ncn4)cc3NC(=O)C=C)CC2)CC1 [Example 88, N-(2-(4-(4-allylpiperazine-1-yl)piperidine-1-yl)-5-((6-((R)-3-(2,5-difluorophenyl)isoxazolidine-2-yl)pyrimidine-4-yl)amino)-4-methoxyphenyl) acrylamide]"
8,A (GI50 < 50 nM),"C=CC(=O)Nc1cc(Nc2cc(N3OCC[C@@H]3c3cccc(Cl)c3Cl)ncn2)c(OC)cc1N1CCC(N2CCN(C)CC2)CC1 [compound 565, N-(5-((6-((R)-3-(2,3-dichlorophenyl)isoxazolidine-2-yl)pyrimidine-4-yl)amino)-4-methoxy-2-(4-(4-methylpiperazine-1-yl)piperidine-1-yl)phenyl) acrylamide]"
